Measured values from patent publication US20100240630A1, “COMPOUNDS AND THERAPEUTIC USES THEREOF” (Myriad Pharmaceuticals, Inc.., priority 2007, published 2010).

tested on: HIV-1 laboratory strain, NL4-3; assay: MT-4 cytoprotection assay (WST-1 readout); type: cell-based; details: Human immunodeficiency virus 1, NL43, MT4, 96 h; MT-4 cells infected with HIV-1 NL4-3, MOI 0.0005, four days incubation; read-out: EC50, antiviral activity in the MT4 assay (most active compounds)
Method: The compounds of the invention can be tested in the following MT-4 assay to detect antiviral activity.
The HTLV-1 transformed T cell line, MT-4, is highly susceptible to HIV-1 infection. Anti-HIV-1 agents were evaluated in this target cell line by protection from the HIV-induced cytopathic effect. In this assay, viability of both HIV-1 and mock-infected cells was assessed in a colorimetric assay that monitors the ability of metabolically-active cells to reduce the tetrazolium salt WST-1. Cytoprotection by antiviral compounds is indicated by the positive readout of increased WST-1 cleavage.
Briefly, exponentially growing MT-4 cells were mock-infected or batch-infected with the HIV-1 laboratory strain, NL4-3, at a multiplicity of infection of 0.0005. Following a two hour infection, the cells were washed to remove unbound virus and plated in the presence of increasing concentrations of compound. After four days incubation, cytoprotection in the infected cells and compound toxicity in mock-infected cells were analyzed using the WST-1 assay.

Compound	EC50
C=C(C)[C@@H]1CC[C@]2(C#Cc3cccc(F)c3C(=O)O)CC[C@]3(C)C(CCC4[C@@]5(C)CC[C@H](OC(=O)CC(C)(C)C(=O)O)C(C)(C)C5CC[C@]43C)C12 (some centres unmarked) [Compound 20]	≤ 100 nM
C=C(C)[C@@H]1CC[C@]2(C#Cc3ccsc3-c3nnn[nH]3)CC[C@]3(C)C(CCC4[C@@]5(C)CC[C@H](OC(=O)CC(C)(C)C(=O)O)C(C)(C)C5CC[C@]43C)C12 (some centres unmarked) [Compound 18]	≤ 100 nM
C=C(C)[C@@H]1CC[C@]2(C#Cc3ccc(OC)c(OC)c3C(=O)O)CC[C@]3(C)C(CCC4[C@@]5(C)CC[C@H](OC(=O)CC(C)(C)C(=O)O)C(C)(C)C5CC[C@]43C)C12 (some centres unmarked) [Compound 50]	≤ 100 nM
C=C(C)[C@@H]1CC[C@]2(C#Cc3ccccc3S(C)(=O)=O)CC[C@]3(C)C(CCC4[C@@]5(C)CC[C@H](OC(=O)CC(C)(C)C(=O)O)C(C)(C)C5CC[C@]43C)C12 (some centres unmarked) [Compound 32]	≤ 100 nM
C=C(C)[C@@H]1CC[C@]2(C#Cc3ccc(Cl)cc3C(=O)O)CC[C@]3(C)C(CCC4[C@@]5(C)CCC(OC(=O)CC(C)(C)C(=O)O)C(C)(C)C5CC[C@]43C)C12 (some centres unmarked) [Compound 35]	≤ 100 nM
C=C(C)[C@@H]1CC[C@]2(C#Cc3cccc(Cl)c3C(=O)O)CC[C@]3(C)C(CCC4[C@@]5(C)CC[C@H](OC(=O)CC(C)(C)C(=O)O)C(C)(C)C5CC[C@]43C)C12 (some centres unmarked) [Compound 51]	≤ 100 nM
C=C(C)[C@@H]1CC[C@]2(C#Cc3cc(F)ccc3C(=O)O)CC[C@]3(C)C(CCC4[C@@]5(C)CC[C@H](OC(=O)CC(C)(C)C(=O)O)C(C)(C)C5CC[C@]43C)C12 (some centres unmarked) [Compound 13]	≤ 100 nM
C=C(C)[C@@H]1CC[C@]2(C#Cc3c(C)cccc3C(=O)O)CC[C@]3(C)C(CCC4[C@@]5(C)CC[C@H](OC(=O)CC(C)(C)C(=O)O)C(C)(C)C5CC[C@]43C)C12 (some centres unmarked) [Compound 22]	≤ 100 nM
C=C(C)[C@@H]1CC[C@]2(C#Cc3ccccc3C(=O)N(C)C)CC[C@]3(C)C(CCC4[C@@]5(C)CC[C@H](OC(=O)CC(C)(C)C(=O)O)C(C)(C)C5CC[C@]43C)C12 (some centres unmarked) [Compound 30]	≤ 100 nM
C=C(C)[C@@H]1CC[C@]2(C#CC3=C(C(=O)O)CCC3)CC[C@]3(C)C(CCC4[C@@]5(C)CC[C@H](OC(=O)CC(C)(C)C(=O)O)C(C)(C)C5CC[C@]43C)C12 (some centres unmarked) [Compound 41]	≤ 100 nM
C=C(C)[C@@H]1CC[C@]2(C#Cc3ccncc3C(=O)O)CC[C@]3(C)C(CCC4[C@@]5(C)CC[C@H](OC(=O)CC(C)(C)C(=O)O)C(C)(C)C5CC[C@]43C)C12 (some centres unmarked) [Compound 54]	≤ 100 nM
C=C(C)[C@@H]1CC[C@]2(C#Cc3ccsc3C(=O)O)CC[C@]3(C)C(CCC4[C@@]5(C)CC[C@H](OC(=O)CC(C)(C)C(=O)O)C(C)(C)C5CC[C@]43C)C12 (some centres unmarked) [Compound 11]	≤ 100 nM
C=C(C)[C@@H]1CC[C@]2(C#Cc3cc(Cl)ccc3C(=O)O)CC[C@]3(C)C(CCC4[C@@]5(C)CC[C@H](OC(=O)CC(C)(C)C(=O)O)C(C)(C)C5CC[C@]43C)C12 (some centres unmarked) [Compound 34]	≤ 100 nM
C=C(C)[C@@H]1CC[C@]2(C#Cc3ccccc3C(N)=O)CC[C@]3(C)C(CCC4[C@@]5(C)CC[C@H](OC(=O)CC(C)(C)C(=O)O)C(C)(C)C5CC[C@]43C)C12 (some centres unmarked) [Compound 27]	≤ 100 nM
C=C(C)[C@@H]1CC[C@]2(C#Cc3ccccc3C(=O)NS(C)(=O)=O)CC[C@]3(C)C(CCC4[C@@]5(C)CC[C@H](OC(=O)CC(C)(C)C(=O)O)C(C)(C)C5CC[C@]43C)C12 (some centres unmarked) [Compound 55]	≤ 100 nM
C=C(C)[C@@H]1CC[C@]2(CCc3ccccc3C(=O)O)CC[C@]3(C)C(CCC4[C@@]5(C)CC[C@H](OC(=O)CC(C)(C)C(=O)O)C(C)(C)C5CC[C@]43C)C12 (some centres unmarked) [Compound 28]	≤ 100 nM
C=C(C)[C@@H]1CC[C@]2(C#CC3=C(C(=O)O)CNCC3)CC[C@]3(C)C(CCC4[C@@]5(C)CC[C@H](OC(=O)CC(C)(C)C(=O)O)C(C)(C)C5CC[C@]43C)C12 (some centres unmarked) [Compound 43]	≤ 100 nM
C=C(C)[C@@H]1CC[C@]2(C#Cc3ccc(F)cc3C(=O)O)CC[C@]3(C)C(CCC4[C@@]5(C)CC[C@H](OC(=O)CC(C)(C)C(=O)O)C(C)(C)C5CC[C@]43C)C12 (some centres unmarked) [Compound 21]	≤ 100 nM
C=C(C)[C@@H]1CC[C@]2(C#Cc3ccccc3C(=O)O)CC[C@]3(C)C(CCC4[C@@]5(C)CC[C@H](OC(=O)CC(C)(C)C(=O)O)C(C)(C)C5CC[C@]43C)C12 (stereo partly drawn) [Compound 6, 2,2-Dimethyl-succinic acid 4-[(1R,5aR,5bR,9S,11aR)-3a-(2-carboxy-phenylethynyl)-1-isopropenyl-5a,5b,8,8,11a-pentamethyl-icosahydro-cyclopenta[a]chrysen-9-yl]ester]	≤ 100 nM
C=C(C)[C@@H]1CC[C@]2(C#CC3=C(C(=O)O)CCCC3)CC[C@]3(C)C(CCC4[C@@]5(C)CC[C@H](OC(=O)CC(C)(C)C(=O)O)C(C)(C)C5CC[C@]43C)C12 (some centres unmarked) [Compound 45]	≤ 100 nM
C=C(C)[C@@H]1CC[C@]2(C#CC3=C(C(=O)O)CN(C(=O)OC(C)(C)C)CC3)CC[C@]3(C)C(CCC4[C@@]5(C)CC[C@H](OC(=O)CC(C)(C)C(=O)O)C(C)(C)C5CC[C@]43C)C12 (some centres unmarked) [Compound 42]	≤ 100 nM
C=C(C)[C@@H]1CC[C@]2(C#Cc3sccc3C(=O)O)CC[C@]3(C)C(CCC4[C@@]5(C)CC[C@H](OC(=O)CC(C)(C)C(=O)O)C(C)(C)C5CC[C@]43C)C12 (some centres unmarked) [Compound 9]	≤ 100 nM
C=C(C)[C@@H]1CC[C@]2(C#Cc3cc(C)ccc3C(=O)O)CC[C@]3(C)C(CCC4[C@@]5(C)CC[C@H](OC(=O)CC(C)(C)C(=O)O)C(C)(C)C5CC[C@]43C)C12 (some centres unmarked) [Compound 36]	≤ 100 nM
